Assay results taken from article PMC8841438 (Clinical and Translational Science, 2021).
Read-outs that look alike come from different tables or passages of the source.

How the values were obtained:
[1] = tested on: organic cation transporter 1; conditions: in vitro; at clinically relevant concentrations; cited from earlier work
[2] = target: T1, organic cation transporter 2 (OCT2) (Homo sapiens, UniProt O15244); conditions: in vitro; cited from earlier work
T1 sequence (O15244 1-555): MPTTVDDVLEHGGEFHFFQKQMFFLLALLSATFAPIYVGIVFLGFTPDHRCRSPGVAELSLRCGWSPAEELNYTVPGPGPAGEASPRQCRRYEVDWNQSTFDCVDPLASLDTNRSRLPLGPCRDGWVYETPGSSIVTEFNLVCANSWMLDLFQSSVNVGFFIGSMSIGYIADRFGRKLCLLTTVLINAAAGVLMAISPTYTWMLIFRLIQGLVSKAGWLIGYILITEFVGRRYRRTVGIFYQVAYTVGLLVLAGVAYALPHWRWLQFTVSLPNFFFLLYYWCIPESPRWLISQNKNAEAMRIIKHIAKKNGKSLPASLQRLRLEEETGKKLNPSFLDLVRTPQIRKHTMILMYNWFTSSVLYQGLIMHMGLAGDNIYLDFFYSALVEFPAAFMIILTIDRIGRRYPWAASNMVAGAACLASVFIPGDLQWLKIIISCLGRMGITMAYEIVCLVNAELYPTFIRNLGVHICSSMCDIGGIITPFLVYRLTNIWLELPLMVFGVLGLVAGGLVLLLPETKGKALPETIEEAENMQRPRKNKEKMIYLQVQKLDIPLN

[3] = cited from earlier work
[4] = type: in vivo, human
[5] = 200 mg and 100 mg once‐daily; patients with active rheumatoid arthritis; phase III; cited from earlier work
[6] = tested on: organic anion transporting polypeptide 1B1; conditions: in vitro; cited from earlier work
[7] = tested on: organic anion transporter 1; conditions: in vitro; at clinically relevant concentrations; cited from earlier work
[8] = tested on: organic anion transporting polypeptide 1B3; conditions: in vitro; cited from earlier work
[9] = tested on: breast cancer resistance protein; conditions: in vitro; at clinically relevant concentrations; cited from earlier work
[10] = ulcerative colitis phase IIb/III, cited from earlier work
Safety assessments = type: in vivo, human; conditions: for subjects with at least one graded laboratory abnormality: majority grade 1 or 2
[11] = cited from earlier work; remark: listed apart in the source
[12] = no reference given; cited from earlier work
JAK1 = conditions: whole blood and cellular assays; cited from earlier work
bile salt export pump = conditions: in vitro; at clinically relevant concentrations; cited from earlier work
MATE1 [13] = target: T2, MATE1 (Homo sapiens, UniProt Q96FL8); assay: In vitro transporter inhibition: MATE1; type: in vitro ADME; conditions: data on file at Gilead Sciences, Inc.
T2 sequence (Q96FL8 1-570): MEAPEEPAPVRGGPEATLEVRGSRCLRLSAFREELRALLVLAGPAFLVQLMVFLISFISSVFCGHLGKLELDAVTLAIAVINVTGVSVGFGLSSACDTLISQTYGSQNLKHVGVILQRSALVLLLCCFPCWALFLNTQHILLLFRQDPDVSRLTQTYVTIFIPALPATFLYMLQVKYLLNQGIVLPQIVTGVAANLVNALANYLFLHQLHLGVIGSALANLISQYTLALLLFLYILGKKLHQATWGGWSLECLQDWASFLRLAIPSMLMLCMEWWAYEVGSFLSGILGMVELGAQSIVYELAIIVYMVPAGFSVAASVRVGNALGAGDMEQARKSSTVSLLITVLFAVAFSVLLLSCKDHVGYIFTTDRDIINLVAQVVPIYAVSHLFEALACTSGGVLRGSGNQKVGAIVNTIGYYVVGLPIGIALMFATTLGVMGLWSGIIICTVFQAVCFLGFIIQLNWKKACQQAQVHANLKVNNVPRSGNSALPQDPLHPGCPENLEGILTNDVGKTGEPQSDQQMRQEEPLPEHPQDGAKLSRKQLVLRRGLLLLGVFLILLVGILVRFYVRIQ

[14] = tested on: organic anion transporter 3; conditions: in vitro; at clinically relevant concentrations; cited from earlier work
MATE2K [15] = target: T3, MATE2K (Homo sapiens, UniProt Q86VL8); conditions: in vitro; cited from earlier work
T3 sequence (Q86VL8 1-566 isoform Q86VL8-3): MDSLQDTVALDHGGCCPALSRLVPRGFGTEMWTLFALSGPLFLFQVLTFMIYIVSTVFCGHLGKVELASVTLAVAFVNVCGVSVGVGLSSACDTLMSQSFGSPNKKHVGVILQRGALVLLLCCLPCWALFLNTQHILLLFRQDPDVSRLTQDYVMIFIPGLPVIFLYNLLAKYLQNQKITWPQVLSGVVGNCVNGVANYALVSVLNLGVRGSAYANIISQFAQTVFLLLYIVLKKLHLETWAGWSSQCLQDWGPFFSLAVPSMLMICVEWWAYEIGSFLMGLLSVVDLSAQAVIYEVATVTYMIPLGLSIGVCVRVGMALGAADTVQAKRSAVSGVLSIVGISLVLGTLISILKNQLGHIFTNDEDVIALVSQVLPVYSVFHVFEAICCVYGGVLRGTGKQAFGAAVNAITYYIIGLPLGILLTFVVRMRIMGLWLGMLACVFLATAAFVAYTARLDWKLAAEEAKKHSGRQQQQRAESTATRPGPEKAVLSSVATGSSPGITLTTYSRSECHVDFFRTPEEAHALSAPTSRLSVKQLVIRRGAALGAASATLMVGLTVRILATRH

MATE1 [16] = target: T2, MATE1; conditions: in vitro; cited from earlier work
[17] = target: T1, organic cation transporter 2 (OCT2); assay: In vitro transporter inhibition: OCT2; type: in vitro ADME; conditions: data on file at Gilead Sciences, Inc.
[18] = tested on: carboxylesterase 2 (CES2); conditions: cited from earlier work
[19] = tested on: organic anion transporter 4; conditions: in vitro; at clinically relevant concentrations; cited from earlier work
MATE2K [20] = target: T3, MATE2K; assay: In vitro transporter inhibition: MATE2K; type: in vitro ADME; conditions: data on file at Gilead Sciences, Inc.
[21] = tested on: human colon carcinoma‐derived (Caco‐2) cells; conditions: no reference given; cited from earlier work
[22] = study 2, filgotinib 200 mg after multiple doses of rifampin 600 mg vs alone
[23] = study 2, filgotinib + rifampin vs filgotinib alone
[24] = study 3, filgotinib treatment period
[25] = patients with rheumatoid arthritis

Tmax ([4]; human, plasma, oral): 1.5 h | half-life ([4]; human, plasma, oral): 7.7 h | AUC(0-inf) ([4]; human, plasma, oral, 200 mg): 6960 ng·h/mL | AUC(0-t) ([4]; human, plasma, oral, 200 mg): 6980 ng·h/mL | Cmax ([4]; human, plasma, oral, 200 mg): 2190 ng/mL | Tmax ([4]; human, plasma, oral, 200 mg): 1 h | half-life ([4]; human, plasma, oral, 200 mg): 8.4 h | reduction in AUCinf by rifampin [4, 22]: 27% | reduction in C max by rifampin [4, 22]: 26% | AUCinf %GLSM ratio (90% CI) [4, 23]: 72.7 (69.1, 76.5) % | AUClast %GLSM ratio (90% CI) [4, 23]: 72.7 (69.1, 76.5) % | effect of rifampin on T max and t 1/2 (in words) ([4]; study 2, filgotinib: T max and t 1/2, GS‐829845: Tmax): similar | CL/F ([4]; study 2, single filgotinib 200 mg alone, mean (%CV), N = 14): 30.1 (21.0) L/h | inhibition of MATE1 (in words) (MATE1 [13]; in vitro data): may inhibit | ratio of maximum unbound plasma concentration over in vitro IC50 against MATE1 (MATE1 [13]; [25]): 0.26 | inhibition of OCT2 (in words) ([17]; in vitro data): may inhibit | ratio of maximum unbound plasma concentration over in vitro IC50 against OCT2 [17, 25]: 0.26 | inhibition of MATE2K (in words) (MATE2K [20]; in vitro data): may inhibit | ratio of maximum unbound plasma concentration over in vitro IC50 against MATE2K (MATE2K [20]; [25]): 0.44
SMILES: O=C(Nc1nc2cccc(-c3ccc(CN4CCS(=O)(=O)CC4)cc3)n2n1)C1CC1 [Filgotinib]
inhibition of organic cation transporter 1 [1]: not inhibitors | inhibition of OCT2 [2]: inhibited | administered dose eliminated in the urine as filgotinib and its metabolites [3]: Approximately 87% | dose eliminated in the feces [3]: about 15% | orally administered dose recovered in feces as the named species ([3]; filgotinib: unchanged): ~5% | orally administered dose recovered in urine as the named species ([3]; filgotinib: unchanged): ~ 9% | signs and symptoms and physical function [5]: significantly improved | inhibition of OATP1B1 [6]: inhibited | inhibition of organic anion transporter 1 [7]: not inhibitors | inhibition of OATP1B3 [8]: inhibited | inhibition of breast cancer resistance protein [9]: not inhibitors | primary end point in the induction studies ([10]; 100 mg dose): did not meet the primary end point | primary end points (clinical remission at week 10 and week 58) ([10]; 200 mg dose): met all the primary end points | tolerability (in words) (Safety assessments; all three studies, alone or with the co‐administered drugs): generally well‐tolerated | subjects with AEs (Safety assessments; study 1, by treatment period, all grade 1, not related to study drug): 7.7% | subjects with at least one graded laboratory abnormality (Safety assessments; study 1, by treatment period): 15% | subjects with at least one graded laboratory abnormality (Safety assessments; study 2, by treatment period): 14% | subjects with AEs (Safety assessments; study 3, by treatment period, all grade 1): 8.3% | subjects with grade 3 decreased lymphocytes and neutrophils (Safety assessments; [24]): 8.3% | subjects with grade 3 laboratory abnormalities (Safety assessments; [24]): 25% | subjects with grade 3 occult blood in urine (Safety assessments; [24]): 17% | subjects with at least one graded laboratory abnormality (Safety assessments; [24]): 75% | AE considered related to study drug (kind of AE) (Safety assessments; study 3, one subject, by treatment phase): headache | accumulation following multiple doses [11]: no accumulation | time to steady‐state concentrations [11]: ~ 2 days | linearity of pharmacokinetics ([11]; from 50 to 200 mg, dose proportional and time‐independent): linear | permeability (BCS) [12]: high permeability | solubility (BCS) [12]: low solubility | potency on JAK1 over JAK2, JAK3, tyrosine kinase 2, and other kinases (JAK1): greater than five‐fold higher potency | inhibition of bile salt export pump (bile salt export pump): not inhibitors | inhibition of organic anion transporter 3 [14]: not inhibitors | inhibition of MATE2K (MATE2K [15]): inhibited | inhibition of MATE1 (MATE1 [16]): inhibited | metabolism by CES2 to form GS‐829845 (in words) [18]: primarily metabolized | inhibition of organic anion transporter 4 [19]: not inhibitors | efflux in Caco‐2 cells [21]: active efflux
